# Reference: patent US20250367419A1, “DRUG DELIVERY SYSTEM COMPRISING AN AGENT EFFECTIVE IN THE TREATMENT OR PREVENTION OF AN ESOPHAGEAL DISEASE FOR THE APPLICATION TO ESOPHAGEAL MUCOUS MEMBRANES” (EsoCap AG, priority 2022, published 2025)
# “Also recorded” adds a separate entry of the source. r = 2'-OH (RNA)
# Legend:
# Format in all cases: physicochemical
# [1] = HPLC analysis of paclitaxel content of the coated polymer film; settings: API-loaded film sample compared with calibration sample
# Method: • 1. Preparation polymer mixture • 2. Preparation of film laminates • 3. Slitting of the moist laminates • 4. Coating of the moist laminates • 5. Drying at room temperature
# Further, the film was analyzed for the content of paclitaxel. To this end, 5 circular samples with a size of 1 cm^2 were cut at random positions of the film and dissolved in Brij® L23-buffer/methanol (MeOH) for HPLC analysis with Hypersil ODS 150×4.6 mm as stationary phase and acetonitrile/phosphate buffer as mobile phase. The HPLC results are shown in FIG. 11 in comparison to a blank film sample and a calibration sample.
# [2] = Stability of antisense BMP2 RNA on the film under various application and storage conditions, 20% denaturing polyacrylamide gel; settings: for RNA degradation after storage of the dry film: 10 days of storage of the dry film at 4° C.
# Method: A film containing the antisense RNA for BMP2 was prepared as described in Example 2 except for using PVA 4-88 instead of PVA 18-88.
# The stability of the antisense BMP2 RNA was analyzed under various application conditions as indicated in FIG. 16 and the legend of FIG. 16. 10 pmol of each probe was loaded on a 20% denaturing polyacrylamide gel. The gel was run for 3 hours at 140 volt and subsequently colored with SYBR gold for 20 minutes.
# The stability of labeled antisense BMP2 RNA was analyzed in comparison to unlabeled antisense BMP2 RNA under various application conditions as indicated in FIG. 17 and the legend of FIG. 17. In lanes 1 to […], 5 pmol of the probe, in lanes 4 to 6, 10 pmol of each probe were loaded on a 20% denaturing polyacrylamide gel. The gel was run for 3 hours at 140 volt and subsequently colored with ethidium bromide for 30 minutes (FIG. 17a) or excited with light of a wavelength of 630 nm and emission was measured at 675 nm (FIG. 17b). The bands of labeled BMP2 RNA in FIG. 17b correspond to the band of the unlabeled BMP2 RNA in FIG. 17a Since the unlabeled BMP2 RNA has no fluorescent marker, the bands of unlabeled BMP2 RNA are not visible in FIG. 17b.
# The stability of labeled antisense BMP2 RNA was analyzed in comparison to unlabeled antisense BMP2 RNA after storage of the dry film for 10 days at 4° C. Probes were loaded on a 20% denaturing polyacrylamide gel. The gel was run for 3 hours at 140 volt and subsequently colored with ethidium bromide for 30 minutes (FIG. 18b) or excited with light of a wavelength of 630 nm and emission was measured at 675 nm (FIG. 18a). The bands of labeled BMP2 RNA in FIG. 18a correspond to the band of the unlabeled BMP2 RNA in FIG. 18b.
# [3] = Stability of RNA on the polymer film, 20% denaturing polyacrylamide gel
# Method: • 1. preparation “base polymer mixture” • 2. sterilization • 3. preparation of film laminates • 4. drying • 5. cutting (A=0.25 cm^2) • 6. application of RNA samples on the polymer film • 7. drying of the final samples • !points 3-7 under aseptic conditions!
# Stability of RNA on the film was analyzed using a 20% denaturizing polyacrylamide (PAA) gel. The experiment was repeated with a commercially available siRNA.
# Stability of RNA on the film was further analyzed before and after solubilization of the film.
compound,measurement,setting,value
"CC(=O)O[C@H]1C(=O)[C@@]2(C)[C@H]([C@H](OC(=O)c3ccccc3)[C@]3(O)C[C@H](OC(=O)[C@H](O)[C@@H](NC(=O)c4ccccc4)c4ccccc4)C(C)=C1C3(C)C)[C@]1(OC(C)=O)CO[C@@H]1C[C@@H]2O [paclitaxel, (2α,4α,5β,7β,10β,13α)-4,10-Bis(acetyloxy)-13-{[(2R,3S)-3-(benzoylamino)-2-hydroxy-3-phenylpropanoyl]oxy}-1,7-dihydroxy-9-oxo-5,20-epoxytax-11-en-2-yl-benzoat]",stability of paclitaxel prepared in a film,[1],can be stably prepared in a film
"5′-AUU UCG AGU UGG CUG UUG C-3′ (antisense AUUUCGAGUUGGCUGUUGC; RNA, 3' rUrU, backbone not given here) [BMP2 RNA, antisense strand of BMP2-siRNA 2]",RNA degradation after storage of the dry film,[2],no RNA degradation could be observed
same,stability of RNA after application to the film,"[2]; PVA 4-88 film, various application conditions, compared with stock sample",no difference between the test sample and the stock sample; also recorded: not degraded by the film
"5′ UGCGCAGAAUGAGAUGAGUUG 3′ (UGCGCAGAAUGAGAUGAGUUG; listed as RNA, chemistry not given here)",influence of the film on RNA stability,"[3]; RNA applied on PVA 18-88 film, 20% denaturing PAA gel",no influence on the stability
same,storage stability of RNA on the dry film,"[3]; dried samples on the film, 4 days at 4° C.",no influence on RNA stability
"labeled BMP2 RNA: SEQ ID NO:23 antisense BMP2 RNA labeled with the dye Atto633 attached to the 3′ end (antisense AUUUCGAGUUGGCUGUUGC; listed as RNA, chemistry not fully specified)",RNA degradation after storage of the dry film,[2],no RNA degradation could be observed
